This is an account of results in article PMC11541572, “Nucleotidyltransferase toxin MenT extends aminoacyl acceptor ends of serine tRNAs to control Mycobacterium tuberculosis growth” (Nature Communications, 2024).

The target of one assay is PcnA (Mycobacterium tuberculosis, UniProt L7N672).
A further assay concerns the target T1, MenT3 (Mycobacterium tuberculosis, UniProt P96356).
T1 construct: gene Rv1045

A further assay has as its target T2, MenT1 (Mycobacterium tuberculosis, UniProt L7N686).
T2 construct: gene Rv0078A

T1 sequence (P96356 1-293): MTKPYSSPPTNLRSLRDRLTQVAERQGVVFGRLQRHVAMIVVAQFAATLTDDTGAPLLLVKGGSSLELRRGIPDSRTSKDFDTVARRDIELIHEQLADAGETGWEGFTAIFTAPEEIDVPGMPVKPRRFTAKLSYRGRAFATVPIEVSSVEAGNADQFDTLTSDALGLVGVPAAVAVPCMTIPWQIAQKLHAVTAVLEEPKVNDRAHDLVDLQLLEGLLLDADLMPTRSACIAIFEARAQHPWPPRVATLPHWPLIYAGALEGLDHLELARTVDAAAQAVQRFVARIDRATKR
T2 sequence (L7N686 1-197): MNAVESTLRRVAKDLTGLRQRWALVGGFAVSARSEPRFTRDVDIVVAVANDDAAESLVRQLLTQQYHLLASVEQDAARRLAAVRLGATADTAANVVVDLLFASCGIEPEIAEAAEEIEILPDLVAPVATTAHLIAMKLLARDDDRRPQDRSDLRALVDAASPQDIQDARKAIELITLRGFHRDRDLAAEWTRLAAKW
Chain of PcnA (L7N672 entry or part of it): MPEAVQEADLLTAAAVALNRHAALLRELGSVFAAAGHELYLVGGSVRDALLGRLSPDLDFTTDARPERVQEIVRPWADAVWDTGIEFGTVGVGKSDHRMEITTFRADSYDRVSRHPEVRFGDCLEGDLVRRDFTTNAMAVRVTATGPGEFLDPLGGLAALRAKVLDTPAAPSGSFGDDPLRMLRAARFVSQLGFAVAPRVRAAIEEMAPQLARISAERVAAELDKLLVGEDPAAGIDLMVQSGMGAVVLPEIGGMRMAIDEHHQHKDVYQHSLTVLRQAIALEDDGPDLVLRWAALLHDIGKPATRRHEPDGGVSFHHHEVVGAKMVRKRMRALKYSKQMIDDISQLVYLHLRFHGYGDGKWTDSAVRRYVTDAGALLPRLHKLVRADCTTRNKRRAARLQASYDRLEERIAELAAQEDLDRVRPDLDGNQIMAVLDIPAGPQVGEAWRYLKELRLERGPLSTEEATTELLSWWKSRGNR

As to `O=P(O)(O)OP(=O)(O)O` [inorganic pyrophosphate], the “pyrophosphorolysis of labelled tRNA, urea-PAGE autoradiography” value at PcnA is “PcnA is indeed capable of generating truncated tRNA^Ser-4ΔA and ΔCA from MenT3-modified tRNA”. Take `Nc1ccn([C@@H]2O[C@H](COP(=O)(O)OP(=O)(O)OP(=O)(O)O)[C@@H](O)[C@H]2O)c(=O)n1` [CTP]: the “transfer of alpha-32P nucleotide to tRNA, urea-PAGE autoradiography” value on MenT3 is “CTP is by far the preferred nucleotide substrate of MenT3 in vitro”; at MenT1 it was “in the presence of α-32P labeled CTP for MenT1 and MenT3”.
